Reference: US4609666A, “Aromatase inhibiting derivatives of α,α-bis(4-halophenyl)methyltetrazoles and triazoles” (Eli Lilly and Company, priority 1984, dated 1986)
Structures can show the parent of a compound that is named as a salt.

Assays:
breast cancer = details: known aromatase inhibitors; cited from earlier work
aromatase = target: T1, aromatase (Rattus norvegicus, UniProt P22443); experiment: Aromatase inhibition in the rat ovarian microsome assay; format: biochemical; details: rat ovarian microsomes; substrate (androstenedione) concentration 0.1 μM
T1 construct: ovarian microsomes are obtained from rats treated with pregnant mares serum gonadotropin; from tissue; host or cells: ovary microsomes from rats treated with pregnant mares serum gonadotropin
T1 sequence (P22443 1-508): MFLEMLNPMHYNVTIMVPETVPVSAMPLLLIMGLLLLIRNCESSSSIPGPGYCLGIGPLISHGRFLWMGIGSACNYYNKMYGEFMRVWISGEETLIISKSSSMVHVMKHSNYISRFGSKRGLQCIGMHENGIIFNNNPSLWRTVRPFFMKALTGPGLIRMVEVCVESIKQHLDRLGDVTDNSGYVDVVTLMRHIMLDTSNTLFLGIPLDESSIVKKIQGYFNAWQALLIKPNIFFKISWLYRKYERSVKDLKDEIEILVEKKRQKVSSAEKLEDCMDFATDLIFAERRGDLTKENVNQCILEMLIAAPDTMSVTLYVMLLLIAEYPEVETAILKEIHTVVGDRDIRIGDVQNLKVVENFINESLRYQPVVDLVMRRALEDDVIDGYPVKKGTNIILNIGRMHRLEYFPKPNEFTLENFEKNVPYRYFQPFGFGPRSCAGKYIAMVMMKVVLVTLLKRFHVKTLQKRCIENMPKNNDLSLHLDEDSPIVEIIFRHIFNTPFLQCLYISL
Procedure: In this test system, ovarian microsomes are obtained from rats treated with pregnant mares serum gonadotropin. Test compounds are added to reaction vials containing 0.1 μM 4-androstene-3,17-dione, 100,000 dpm 1,2[^3 H]-androstenedione, the microsomes and a NADPH generating system. The concentrations of the inhibitors tested ranged between 0.005 and 10 μM.

| SMILES | effect in treatment of breast cancer (breast cancer) | EC50 (aromatase) [nM] |
| --- | --- | --- |
| CCC1(c2ccc(N)cc2)CCC(=O)NC1=O (stereo not shown) [aminoglutethimide] | beneficial effect in treatment of breast cancer | – |
| Clc1ccc(C(c2ccccc2)c2cn[nH]c2)c(Cl)c1 (stereo not shown) [4-[(2,4-Dichlorophenyl)phenylmethyl]-1H-pyrazole] | – | 310 |
| Clc1ccc(C(c2ccc(Cl)cc2)c2cc[nH]n2)cc1 [3-[Bis(4-chlorophenyl)methyl]-1H-pyrazole hydrochloride] | – | 170 |
| C[C@]12C=CC(=O)C=C1CC[C@@H]1[C@@H]2CC[C@]2(C)OC(=O)CC[C@@H]12 [testolactone] | beneficial effect in treatment of breast cancer | – |
